From EP2088149A1 (priority 2006, dated 2008)

Key:
AMPA receptors = test: Patch-clamp potentiation of kainate-induced trans-membrane currents in freshly isolated cerebellar Purkinje's neurons; assay type: cell-based, rat; details: for Potentiation of cainate-induced currents (%) / Potentiation of cainate-induced currents (%): blockade: rat cerebellar Purkinje's neurons; for Potentiation of cainate-induced currents (%): blockade: 10 µM, values are printed as blockade, without minus sign; for Washing returned the amplitude of responses to the control value: washing time after application of the compound
Description: The inventors used determining the potentiating effect of novel compounds on kainate-induced trans-membrane currents in cerebellar Purkinje's neurons of rats for a directed search for compounds capable of potentiating responses of AMPA receptors (and thereby, to cause improvement of memory and cognitive functions).
Experiments on assessing the effect of substances on AMPA receptors were carried out using the patch-clamp method on freshly isolated Purkinje's neurons isolated from cerebellum of rats (aged 12 to 15 days). A modified method was used for isolation. 400 to 600 µm thick cerebellar slices were placed into a thermostatic 10 ml chamber. A solution for isolation had the following composition (in mM): NaCl 150.0, KCl 5.0; CaCl2 2.0, MgSO4×7H2O 2.0, HEPES 10.0, glucose 15.0, pH 7.42. The slices were incubated in this solution for 60 minutes, and thereafter, the solution was replaced by a similar solution comprising pronase (2 mg/ml) and collagenase (1 mg/ml) and incubated for 70 minutes. After washing with the original solution for 20 minutes, the slices were placed into a Petri plate and separated by a mechanic method using a Pasteur pipette. The solutions were continuously blown-through with 100% O2 at temperature 34°C. Purkinje's neurons were placed into a 0.6 ml working chamber. A process solution had the following composition (in mM): NaCl 150.0, KCl 5.0; CaCl2 2.6, MgSO4×7H2O 2.0, HEPES 10.0, glucose 15.0, pH 7.36.
Trans-membrane currents were induced by activation of AMPA receptors by applying agonist solutions of these receptors, i.e. cainic acid (CA) using a fast superfusion method. Cainic acid is an agonist of AMPA receptors and it is used for studying properties of AMPA receptors, since AMPA as such causes a too strong desensitization of the receptors, and it is not used in such experiments. Currents were recorded using borosilicate micro electrodes (resistance 1.5 to […]) filled with a following composition (in mM): KCl 100.0; EGTA 11.0, CaCl2 1.0, MgCl2 1.0, HEPES 10.0, ATP 5.0, pH 7.2.
The instrument EPC-9 (HEKA, Germany) was used for recoding. Currents were recorded on the PC Pentium-4 hard disc using the Pulse software, also purchased from the HEKA company. Results were processed using the Pulsefit software (HEKA).
Applying KK induced trans-membrane inward currents in Purkinje's neurons. Addition of the compounds of formula I to perfusion solution induced increase in amplitude of the currents. This increase was dependent on a compound, on concentration thereof, on time elapsed following commencement of a compound application.

[1] = Acute toxicity (LD50, Litchfield and Wilcoxon), intraperitoneal, 14 days follow-up; details: mouse, in vivo, ip; male white outbred mice, intraperitoneally, follow-up 14 days
Description: Acute toxicity of the substances was determined on males of white outbred mice weighing 22 to 26 grams. The substances were administered intraperitoneally as a solution or a suspension in 1% starch solution. Follow-up period was 14 days.

[2] = 0.1 µM, negative values = blockade of the currents
[3] = 1 µM, negative values = blockade of the currents

SMILES: COc1ccc(C(=O)N2CC3(C)CN(C(=O)c4ccc(OC)c(Cn5cccn5)c4)CC(C)(C2)C3=O)cc1Cn1cccn1 [Compound 4]
- Potentiation of cainate-induced currents (%) (AMPA receptors; 0.001 µM): 0.001 µM - no effect
- Potentiation of cainate-induced currents (%) (AMPA receptors; 0.01 µM): 0.01 µM - potentiation by 10 to 30%,
- Potentiation of cainate-induced currents (%) (AMPA receptors; [2]): 0.1 µM - blockade by -20 to -40%
- Potentiation of cainate-induced currents (%) (AMPA receptors; [3]): 1 µM - 0%
- Potentiation of cainate-induced currents (%): blockade (AMPA receptors): 10 µpM - blockade by 15 to 35%
- LD50 at 14 days [1]: 900 mg/kg

SMILES: CC12CC3CC(C)(C1)CC(N)(C3)C2 [Memantine, reference compound]
- Potentiation of cainate-induced currents (%) (AMPA receptors; 30 µM): potentiation by 0 to 15% at 30 µM
- LD50 at 14 days [1]: 1000 mg/kg

SMILES: CC12CN(C(=O)c3ccc4c(c3)OCO4)CC(C)(CN(C(=O)c3ccc4c(c3)OCO4)C1)C2=O [Compound 2, 3,7-bis(1,3-benzodioxol-5-ylcarbonyl)-1,5-dimethyl-3,7-diazabicyclo[3.3.1]nonan-9-one]
- Potentiation of cainate-induced currents (%) (AMPA receptors; 0.00001 µM): 10%
- Potentiation of cainate-induced currents (%) (AMPA receptors; 0.00001 µM, listed as 2 (XXX2)): 0.00001 µM -potentiation by 20 to 40%
- Potentiation of cainate-induced currents (%) (AMPA receptors; 0.0001 µM): 50-90%
- Potentiation of cainate-induced currents (%) (AMPA receptors; 0.0001 µM, listed as 2 (XXX2)): 0.0001 µM - potentiation by 50 to 90%,
- Potentiation of cainate-induced currents (%) (AMPA receptors; 0.001 µM): 60-140%
- Potentiation of cainate-induced currents (%) (AMPA receptors; 0.001 µM, listed as 2 (XXX2)): 0.001 µM - potentiation by 60 to 140%
- Potentiation of cainate-induced currents (%) (AMPA receptors; 0.01 µM): 0-20%
- Potentiation of cainate-induced currents (%) (AMPA receptors; 0.01 µM, listed as 2 (XXX2)): 0.01 µM - potentiation by 0 to 20%,
- Potentiation of cainate-induced currents (%) (AMPA receptors; 0.1 µM, negative values = blockade of the currents, listed as 2 (XXX2)): 0.1 µM - blockade by -20 to -40%
- Washing returned the amplitude of responses to the control value (AMPA receptors): 4 to 6 min
- LD50 at 14 days [1]: 140 mg/kg

SMILES: CC12CN(C(=O)c3ccc4c(c3)OCCO4)CC(C)(CN(C(=O)c3ccc4c(c3)OCCO4)C1)C2=O [Compound 1, 3,7-bis(2,3-dihydro-1,4-benzodioxin-6-ylcarbonyl)-1,5-dimethyl-3,7-diazabicyclo[3.3.1]nonan-9-one]
- Potentiation of cainate-induced currents (%) (AMPA receptors; 0.0001 µM): 0.0001 µM - no potentiation
- Potentiation of cainate-induced currents (%) (AMPA receptors; 0.001 µM): 40 to 50%
- Potentiation of cainate-induced currents (%) (AMPA receptors; 0.001 µM, listed as 1 (XXXI)): 0.001 µM - potentiation by 40 to 50%,
- Potentiation of cainate-induced currents (%) (AMPA receptors; 0.01 µM): 80%
- Potentiation of cainate-induced currents (%) (AMPA receptors; 0.01 µM, listed as 1 (XXXI)): 0.01 µM - potentiation by 80%
- Potentiation of cainate-induced currents (%) (AMPA receptors; [2]): 0%
- Potentiation of cainate-induced currents (%) (AMPA receptors; 0.1 µM, negative values = blockade of the currents, listed as 1 (XXXI)): 0.1 µM - 0%,
- Potentiation of cainate-induced currents (%) (AMPA receptors; [3]): -20 to -40%
- Potentiation of cainate-induced currents (%) (AMPA receptors; 1 µM, negative values = blockade of the currents, listed as 1 (XXXI)): 1 µM - blockade by -20 to -40%
- Washing returned the amplitude of responses to the control value (AMPA receptors): 3 to 5 min
- LD50 at 14 days [1]: 350 mg/kg

SMILES: Cc1nc2ccc(C(=O)N3CC4(C)CN(C(=O)c5ccc6nc(C)c(C)nc6c5)CC(C)(C3)C4=O)cc2nc1C [Compound 3, 3,7-bis[(2,3-dimethylquinoxalin-6-yl)carbonyl]-1,5-dimethyl-3,7-diazabicyclo[3.3.1]nonan-9-one]
- Potentiation of cainate-induced currents (%) (AMPA receptors; 0.0001 µM): 0.0001 µM - no potentiation
- Potentiation of cainate-induced currents (%) (AMPA receptors; 0.001 µM): 0.001 µM - potentiation by 10 to 15%
- Potentiation of cainate-induced currents (%) (AMPA receptors; 0.01 µM): 0.01 µM - potentiation by 20 to 30%,
- Potentiation of cainate-induced currents (%) (AMPA receptors; [2]): 0.1 µM - blockade by -20 to -50%
- Potentiation of cainate-induced currents (%) (AMPA receptors; [3]): 1 µM - no potentiation
- Potentiation of cainate-induced currents (%): blockade (AMPA receptors): 10 µM - blockade by 20 to 50%
- LD50 at 14 days [1]: 90 mg/kg
